According to ChEMBL document CHEMBL1122370 (J Med Chem, 1983):
Several values for one entry are separate records, joined by “and”; a condition that tells them apart may be missing. Equal values may be shown once.

Assays:
L1210 [1] = test: In vivo antitumor activity against L1210 leukemia in 5 mice measured as median survival range at 30 mg/kg; Value ranges from (10-14); type: functional, Mus musculus
L1210 [2] = test: In vivo anti tumor activity against L1210 leukemia in 5 mice measured as Increased life span at 45 mg/kg; type: functional; details: Mus musculus
L1210 [3] = test: In vivo anti tumor activity against L1210 leukemia in 9 mice measured as Increased life span at 60 mg/kg; type: functional; details: Mus musculus
L1210 [4] = test: In vivo antitumor activity against L1210 leukemia in 9 mice measured as median survival range at 60 mg/kg; Value ranges from (18-21); type: functional, Mus musculus
Mus musculus [5] = test: Average weight of the mouse after treating with 30 mg/kg dose for 1 day; type: functional
Mus musculus [6] = test: Average weight of the mouse after treating with 60 mg/kg dose for 1 day; type: functional
Mus musculus [7] = test: Average weight change in mouse after treating with 30 mg/kg dose for 7 days.; type: functional
Mus musculus [8] = test: Average weight change in mouse after treating with 60 mg/kg dose for 7 days.; type: functional
L1210 [9] = test: In vivo antitumor activity against L1210 leukemia in 5 mice measured as median survival range at 45 mg/kg; Value ranges from (11-13); type: functional, Mus musculus
L1210 [10] = test: In vivo antitumor activity against L1210 leukemia in 5 mice measured as median survival range at 180 mg/kg; Value ranges from (14-23); type: functional, Mus musculus
L1210 [11] = test: In vivo anti tumor activity against L1210 leukemia in 5 mice measured as Increased life span at 180 mg/kg; type: functional; details: Mus musculus
L1210 [12] = test: In vivo anti tumor activity against L1210 leukemia in 5 mice measured as Increased life span at 90 mg/kg; type: functional; details: Mus musculus
L1210 [13] = test: In vivo antitumor activity against L1210 leukemia in 5 mice measured as median survival range at 90 mg/kg; Value ranges from (13-19); type: functional, Mus musculus
Mus musculus [14] = test: Average weight of the mouse after treating with 180 mg/kg dose for 1 day; type: functional
Mus musculus [15] = test: Average weight of the mouse after treating with 90 mg/kg dose for 1 day; type: functional
Mus musculus [16] = test: Average weight of the mouse after treating with 45 mg/kg dose for 1 day; type: functional
Mus musculus [17] = test: Average weight change in mouse after treating with 180 mg/kg dose for 7 days.; type: functional
Mus musculus [18] = test: Average weight change in mouse after treating with 90 mg/kg dose for 7 days.; type: functional
L1210 [19] = test: In vivo antitumor activity against L1210 leukemia in 5 mice measured as median survival range at 400 mg/kg; Value ranges from (14-20).; type: functional, Mus musculus
L1210 [20] = test: In vivo antitumor activity against L1210 leukemia in 15 mice measured as T/C values; T/C = 15/11; type: functional, Mus musculus
L1210 [21] = test: In vivo antitumor activity against L1210 leukemia in 5 mice measured as Increased life span at 400 mg/kg.; type: functional, Mus musculus
Mus musculus [22] = test: Average weight of the mouse after treating with 400 mg/kg dose for 1 day.; type: functional
Mus musculus [23] = test: Average weight of the mouse after treating with 400 mg/kg dose for 7 day.; type: functional
L1210 [24] = test: In vivo antitumor activity against L1210 leukemia in 5 mice measured as median survival range at 240 mg/kg; Value ranges from(13-18); type: functional, Mus musculus
L1210 [25] = test: In vivo antitumor activity against L1210 leukemia in 5 mice measured as median survival range at 280 mg/kg; Value ranges from(14-20); type: functional, Mus musculus
L1210 [26] = test: In vivo antitumor activity against L1210 leukemia in 10 mice measured as median survival range at 120 mg/kg; Value ranges from(9-15); type: functional, Mus musculus
L1210 [27] = test: In vivo antitumor activity against L1210 leukemia in 10 mice measured as median survival range at 160 mg/kg; Value ranges from(10-16).; type: functional, Mus musculus
L1210 [28] = test: In vivo antitumor activity against L1210 leukemia in 15 mice measured as T/C values(days); T/C = 15/9; type: functional, Mus musculus
L1210 [29] = test: In vivo antitumor activity against L1210 leukemia in 17 mice measured as T/C values(days); T/C = 17/9; type: functional, Mus musculus
L1210 [30] = test: In vivo antitumor activity against L1210 leukemia in 10 mice measured as Increased life span at 120 mg/kg.; type: functional; details: Mus musculus
L1210 [31] = test: In vivo antitumor activity against L1210 leukemia in 10 mice measured as Increased life span at 160 mg/kg.; type: functional; details: Mus musculus
L1210 [32] = test: In vivo antitumor activity against L1210 leukemia in 5 mice measured as Increased life span at 240 mg/kg.; type: functional; details: Mus musculus
L1210 [33] = test: In vivo antitumor activity against L1210 leukemia in 5 mice measured as Increased life span at 280 mg/kg.; type: functional; details: Mus musculus
L1210 [34] = test: In vivo antitumor activity against L1210 leukemia in 13 mice measured as T/C values(days); T/C = 13/9; type: functional, Mus musculus
Mus musculus [35] = test: Average weight of the mouse after treating with 120 mg/kg dose for 1 day.; type: functional
Mus musculus [36] = test: Average weight of the mouse after treating with 160 mg/kg dose for 1 day.; type: functional
Mus musculus [37] = test: Average weight of the mouse after treating with 200 mg/kg dose for 1 day.; type: functional
Mus musculus [38] = test: Average weight of the mouse after treating with 240 mg/kg dose for 1 day.; type: functional
Mus musculus [39] = test: Average weight of the mouse after treating with 280 mg/kg dose for 1 day.; type: functional
Mus musculus [40] = test: In vivo antitumor activity against L1210 leukemia in 5 mice measured as Increased life span at 200 mg/kg.; type: functional
Mus musculus [41] = test: In vivo antitumor activity against L1210 leukemia in 16 mice measured as T/C values(days); T/C = 16/9; type: functional
Mus musculus [42] = test: In vivo antitumor activity against L1210 leukemia in 5 mice measured as median survival range at 200 mg/kg; Value ranges from(13-18); type: functional
Mus musculus [43] = test: Average weight of the mouse after treating with 120 mg/kg dose for 7 days.; type: functional
Mus musculus [44] = test: Average weight of the mouse after treating with 160 mg/kg dose for 7 days.; type: functional
Mus musculus [45] = test: Average weight of the mouse after treating with 240 mg/kg dose for 7 days.; type: functional
Mus musculus [46] = test: Average weight of the mouse after treating with 280 mg/kg dose for 7 days.; type: functional
Mus musculus [47] = test: Average weight of the mouse after treating with 200 mg/kg dose for 7 days.; type: functional

## CCCCCCCCCCCCOC(=O)CCC(NC(=O)c1ccc(N(C)Cc2cnc3nc(N)nc(N)c3n2)cc1)C(=O)OCCCCCCCCCCCC (stereo not drawn)
L1210 [1]
  Range: 14
L1210 [2]
  ILS at 45 mg/kg: 33%
L1210 [3]
  ILS at 60 mg/kg: 100%
L1210 [4]
  Range: 21
Mus musculus [5]
  Average weight: 23.2
Mus musculus [6]
  Average weight: 24.2
Mus musculus [7]
  Weight change: 3
Mus musculus [8]
  Weight change: 0

## CCCCCCCCOC(=O)CCC(NC(=O)c1cc(Cl)c(N(C)Cc2cnc3nc(N)nc(N)c3n2)c(Cl)c1)C(=O)OCCCCCCCC (stereo not drawn)
L1210 [9]
  Range: 13
L1210 [10]
  Range: 23
L1210 [11]
  ILS at 180 mg/kg: 122%
L1210 [2]
  ILS at 45 mg/kg: 44%
L1210 [12]
  ILS at 90 mg/kg: 66%
L1210 [13]
  Range: 19
Mus musculus [14]
  Average weight: 28.2
Mus musculus [15]
  Average weight: 28.2
Mus musculus [16]
  Average weight: 26.2
Mus musculus [17]
  Weight change: 5.8
Mus musculus [18]
  Weight change: 1.4 and 3.6

## CN(Cc1cnc2nc(N)nc(N)c2n1)c1ccc(C(=O)NC(CCC(=O)OC(C)(C)C)C(=O)OC(C)(C)C)cc1 (stereo not drawn)
L1210 [19]
  Range: 20
L1210 [20]
  T/C: 11
L1210 [21]
  ILS: 36
Mus musculus [22]
  Average weight: 27.6
Mus musculus [23]
  Weight change: 2.6

## CN(Cc1cnc2nc(N)nc(N)c2n1)c1c(Cl)cc(C(=O)NC(CCC(=O)O)C(=O)O)cc1Cl (stereo not drawn)
L1210 [24]
  Range: 18
L1210 [25]
  Range: 20
L1210 [26]
  Range: 15
L1210 [27]
  Range: 16
L1210 [28]
  T/C: 9
L1210 [29]
  T/C: 9
L1210 [30]
  ILS at 120 mg/kg: 22%
L1210 [31]
  ILS at 160 mg/kg: 44%
L1210 [32]
  ILS at 240 mg/kg: 67%
L1210 [33]
  ILS at 280 mg/kg: 89%
L1210 [34]
  T/C: 9
Mus musculus [35]
  Average weight: 22.4
Mus musculus [36]
  Average weight: 22.5
Mus musculus [37]
  Average weight: 24.2
Mus musculus [38]
  Average weight: 22.4
Mus musculus [39]
  Average weight: 21.4
Mus musculus [40]
  ILS at 200 mg/kg: 78%
Mus musculus [41]
  T/C: 9
Mus musculus [42]
  Range: 18
Mus musculus [43]
  Weight change: 2.4
Mus musculus [44]
  Weight change: 2.9
Mus musculus [45]
  Weight change: 2.1
Mus musculus [46]
  Weight change: 1.4
Mus musculus [47]
  Weight change: 1.8
